Legend:
Type in all cases: cell-based
[1] = test system: XBP1s, MDA-MB-231 cells; test: Immunoblot of XBP1 isoforms in MDA-MB-231 cells; details: for XBP1s translation (immunoblot): Tg 48 h, Tm 1 μg/ml 16 h, BFA 0.5 μg/ml 16 h, DTT 4 mM 2 h; for XBP1s (immunoblot) under IRE1α RNase inhibition: 4μ8C 32 μM or MKC-8866 20 μM, 48 h
Description: (§1) Cell culture and treatments MCF10A (ATCC) cells were maintained in DMEM/F-12 (Sigma-Aldrich, St. Louis, USA) supplemented with 5% horse serum (Sigma-Aldrich, St. Louis, USA), 20 ng/mL epidermal growth factor (PeproTech, London, UK), 0.5 μg/mL Hydrocortisone (Sigma-Aldrich, St. Louis, USA), 100 ng/mL Cholera toxin (Sigma-Aldrich, St. Louis, USA), 10 μg/mL insulin (Sigma-Aldrich, St. Louis, USA), 50 U/mL^1 penicillin, and 50 μg/mL streptomycin (St. Sigma-Aldrich, St. Louis, USA). MCF7 cells (ECACC) were cultured in DMEM high glucose (Sigma-Aldrich, St. Louis, USA) supplemented with 10% FBS, 0.01 mg/mL Insulin (Sigma-Aldrich, St. Louis, USA), and 2 mM L-glutamine. MDA-MB-231 cells were cultured in DMEM high glucose (Sigma-Aldrich, St. Louis, USA) supplemented with 10% FBS, 50 U/mL^1 penicillin, 50 μg/mL streptomycin, and 2 mM L-glutamine. U937 and THP-1 (ATCC, Manassas, USA) cells were cultured in RPMI-1640 medium (Sigma-Aldrich, St. Louis, USA) supplemented with 10% foetal bovine serum (FBS) (Sigma-Aldrich, St. Louis, USA), 50 U/mL penicillin, 50 μgml^−1 streptomycin (Sigma-Aldrich, St. Louis, USA), and 2 mM L-glutamine (Sigma-Aldrich, St. Louis, USA). All cells were cultured at 37° C., 5% CO2 in a humidified incubator and adherent cells seeded at an appropriate density 24 h prior to treatment. U937 cells were seeded at 5×10^5 cells/mL and treated immediately while THP-1 cells were seeded at 1×10^6 cells/mL and treated after 2 hours.
(§2) Sample preparation Cells were washed once in ice cold phosphate buffered saline (PBS) and then lysed in either RIPA buffer (Sigma-Aldrich, St. Louis, USAUSA) with RocheSTOP protease inhibitors (Roche, Basel, Switzerland) for protein analysis or directly lysed in TriReagent (Sigma-Aldrich, St. Louis, USAUSA) as per manufactures instructions for RNA analysis.
Immunoblotting Protein lysates were mixed with 5× Laemmli Buffer (0.3125 M Tris HCl (pH 6.8), 10% SDS, 50% glycerol, 25% 2-mercaptoethanol, 0.02% bromophenol blue) in a 1:4 ratio and boiled at 95° C. for 5 min. Samples were separated on an SDS polyacrylamide gel, transferred onto nitrocellulose membrane (GE Healthcare Life Sciences, Little Chalfont, UK) and blocked with 5% milk in Wash Buffer (Randox Laboratories Ltd., Crumlin, UK). Membranes were probed with commercial antibodies to spliced and unspliced XBP1 isoforms and Actin (Sigma-Aldrich, St. Louis, USA, 1:5000). Anti-rabbit (Jackson ImmunoResearch, Cambridge, UK) and anti-mouse (Jackson ImmunoResearch, Cambridge, UK; Sigma-Aldrich, St. Louis, USA) HRP-conjugated secondary antibodies were incubated for 45-60 min and the signal was visualized using western blotting luminol reagent (Thermofisher, Waltham, USA; Perkin-Elmer, Waltham, USA).

[2] = test system: XBP1 splicing, MDA-MB-231 cells; test: XBP1 biochip quantification of XBP1s and XBP1u in MDA-MB-231 lysates; details: for XBP1s quantified by XBP1 biochip: 4μ8C 32 μM (p=0.035) or MKC-8866 20 μM (p=0.033); for Paclitaxel induced increase in XBP1s under IRE1α RNase inhibition: Paclitaxel 10 nM 48 h plus inhibitor, p<0.01; for XBP1u levels: Paclitaxel, MKC-8866 and/or 4μ8C treatment; for XBP1u protein levels during IRE1α inhibition: XBP1 biochip, p=0.71
Description: (§3) Biochip-based determination of XBP1s and XBP1u. XBP1s and XBP1u levels and raw signal were quantified using the Evidence Investigator analyser (EV3602, Randox Laboratories Ltd., UK). Signals from defined discrete test regions were detected using digital imaging technology. The biochips were provided in wells in a carrier in a 3×3 format (9 reaction wells per carrier). A carrier handling tray supplied with the system accommodated 6 carriers. The total assay protocol was performed according to manufacturer's instructions. Briefly, RIPA lysed samples were diluted to 100 μL in RIPA buffer followed by dilution to 200 μL in XBP1 assay buffer and mixed well with gentle pipetting. 200 μL of XBP1 assay diluent was then applied to the surface of the biochip followed by 200 μL diluted sample or 100 μL calibrator/control per well. Following a 60-minute incubation at 37° C., 370 RPM in a thermoshaker (Randox Laboratories Ltd., Crumlin, UK) liquid contents were removed with a sharp flick and washed in a 2× quick, 4×2 min wash steps. 300 μL of HRP conjugated pan-XBP1 detector was applied to each well and another 60 min incubation at 37° C., 370 RPM in a thermoshaker was performed. Following another wash as above 250 μL of a 1:1 ratio of EV841 luminol and peroxide was applied to the surface of each biochip in a carrier and incubated away from direct light for 2 min. Carriers were then submitted to the Evidence Investigator, light emitted from each DTR detected by the CCD camera and signal quantified by the instrument software. Final values in pg/mg were obtained by dividing reported value (in pg) by total protein loaded per well, as determined by bicinchoninic acid (BCA) assay. Calibration curves, inferred values and goodness of fit were independently confirmed using R package nplr (0.1-7, Frederic Commo, https://cran.r-project.org/web/packages/nplr/index.html).
as §1, §2

[3] = test system: XBP1 splicing, MCF7 cells; test: XBP1 biochip quantification of XBP1s and XBP1u in MCF7 lysates; details: 48 h; for XBP1s quantified by XBP1 biochip: 4μ8C 32 μM (p=0.004) or MKC-8866 20 μM (p=0.008)
Description: as §3, with “https://cran.r-project.org/web/packages/nplr/index.html). […]” for “https://cran.r-project.org/web/packages/nplr/index.html).”

[4] = test system: XBP1s, MCF7 cells; test: Immunoblot of XBP1 isoforms in MCF7 cells; details: 4μ8C 32 μM or MKC-8866 20 μM, 48 h
Description: as §1, with “U937 cells were seeded at 5×10^5 cells/mL and treated immediately while THP-1 cells were seeded at 1×10^6 cells/mL and treated after 2 hours.” left out

[5] = test system: XBP1 splicing, THP-1 cells; test: XBP1 biochip and RT-PCR assessment of THP-1 cells after NLRP3 inflammasome activation; details: for XBP1 splicing upon inflammasome activation: LPS 1 μg/ml 4 h followed by nigericin 10 μM 45 min (used together)
Description: as §3
Cell culture and treatments MCF10A (ATCC) cells were maintained in DMEM/F-12 (Sigma-Aldrich, St. Louis, USA) supplemented with 5% horse serum (Sigma-Aldrich, St. Louis, USA), 20 ng/mL epidermal growth factor (PeproTech, London, UK), 0.5 μg/mL Hydrocortisone (Sigma-Aldrich, St. Louis, USA), 100 ng/mL Cholera toxin (Sigma-Aldrich, St. Louis, USA), 10 μg/mL insulin (Sigma-Aldrich, St. Louis, USA), 50 U/mL^1 penicillin, and 50 μg/mL streptomycin (St. Sigma-Aldrich, St. Louis, USA). MCF7 cells (ECACC) were cultured in DMEM high glucose (Sigma-Aldrich, St. Louis, USA) supplemented with 10% FBS, 0.01 mg/mL Insulin (Sigma-Aldrich, St. Louis, USA), and 2 mM L-glutamine. MDA-MB-231 cells were cultured in DMEM high glucose (Sigma-Aldrich, St. Louis, USA) supplemented with 10% FBS, 50 U/mL^1 penicillin, 50 μg/mL streptomycin, and 2 mM L-glutamine. […]

[6] = test system: NLRP3 mediated IL-1β release, THP-1 cells; test: Immunoblot of IL-1β in conditioned media of THP-1 cells; details: LPS and nigericin activated

## O[C@H](CS)[C@H](O)CS (racemic) [Dithiothreitol]
[1]
  XBP1s translation (immunoblot): upregulation

## Cc1cc(=O)oc2c(C=O)c(O)ccc12 [4μ8C]
[2]; MCF7 and MDA-MB-231, 4μ8C 32 μM versus MKC-8866 20 μM
  relative potency of inhibition of XBP1s (XBP1 biochip): more potent than MKC
[2]; MDA-MB-231, 48 h
  XBP1s quantified by XBP1 biochip: significant reductions
  XBP1u levels: no significant change
[2]; MDA-MB-231
  Paclitaxel induced increase in XBP1s under IRE1α RNase inhibition: completely ablated
  XBP1u protein levels during IRE1α inhibition: largely unchanged
[3]
  XBP1s quantified by XBP1 biochip: significant reductions
[3]; 4μ8C 32 μM, significant upregulation, p=0.019
  XBP1u protein expression level (average): 81.1 µg/mg
[1]
  XBP1s (immunoblot) under IRE1α RNase inhibition: reduction
[4]
  XBP1s (immunoblot) under IRE1α RNase inhibition: reduction

## C[C@H]1CCC/C=C/[C@@H]2C[C@H](O)C[C@H]2[C@H](O)/C=C/C(=O)O1 [Brefeldin A]
[1]
  XBP1s translation (immunoblot): upregulation

## COc1cc2c(C)c(CC(=O)N3CCOCC3)c(=O)oc2c(C=O)c1O [MKC-8866]
[2]; MDA-MB-231, 48 h
  XBP1s quantified by XBP1 biochip: significant reductions
  XBP1u levels: no significant change
[2]; MDA-MB-231
  Paclitaxel induced increase in XBP1s under IRE1α RNase inhibition: completely ablated
  XBP1u protein levels during IRE1α inhibition: largely unchanged
[5]; LPS and nigericin activated, p=0.048
  XBP1s expression upon MKC-8866 mediated inhibition (XBP1 biochip): significant changes
[5]; mean=46.2 μg/mg over treatments, one-way ANOVA p=0.408
  XBP1u levels (XBP1 biochip): largely unchanged
[6]
  IL-1β release: ablates
[3]
  XBP1s quantified by XBP1 biochip: significant reductions
[1]
  XBP1s (immunoblot) under IRE1α RNase inhibition: reduction
[4]
  XBP1s (immunoblot) under IRE1α RNase inhibition: reduction

## CC(=O)O[C@H]1C(=O)[C@@]2(C)[C@H]([C@H](OC(=O)c3ccccc3)[C@]3(O)C[C@H](OC(=O)[C@H](O)[C@@H](NC(=O)c4ccccc4)c4ccccc4)C(C)=C1C3(C)C)[C@]1(OC(C)=O)CO[C@@H]1C[C@@H]2O [Paclitaxel]
[2]; MDA-MB-231, Paclitaxel 10 nM, 48 h, from 66.9±16.2 without Paclitaxel, p=0.036
  XBP1s expression: 125.0 ± 14.1 µg/mg
[2]; MDA-MB-231, 48 h
  XBP1u levels: no significant change

## C/C=C(/C)C(=O)O[C@H]1C(C)=C2[C@H]([C@@H]1OC(=O)CCCCCCC)[C@@](C)(OC(C)=O)C[C@H](OC(=O)CCC)[C@@]1(O)[C@H]2OC(=O)[C@@]1(C)O [Thapsigargin]
[1]
  XBP1s translation (immunoblot): upregulation

## CO[C@@H]1C[C@@H](C[C@H]2CC[C@H](C)[C@H]([C@@H](C)C(=O)O)O2)O[C@]2(O[C@](C)([C@H]3CC[C@@](C)([C@@H]4O[C@@H]([C@H]5O[C@@](O)(CO)[C@H](C)C[C@@H]5C)C[C@@H]4C)O3)C[C@H]2C)[C@@H]1C [nigericin, Nigericin]
[5]
  XBP1 splicing upon inflammasome activation: increase

## Lipopolysaccharide [LPS]
[5]
  XBP1 splicing upon inflammasome activation: increase

## Tunicamycin
[1]
  XBP1s translation (immunoblot): upregulation

Reference: patent US20220341943A1, “XBP1 ISOFORM MULTIPLEX ASSAY” (Randox Laboratories Ltd, priority 2019, published 2022)
